Values quoted from earlier work, collected in patent EP0551434B1 (BOARD OF REGENTS THE UNIVERSITY OF TEXAS SYSTEM, priority 1990, dated 1992).

Target: estrogen receptor (Homo sapiens, UniProt P03372)
Conditions: Salituro et al.; cited from earlier work

estrogen receptor, sequence (P03372 whole entry): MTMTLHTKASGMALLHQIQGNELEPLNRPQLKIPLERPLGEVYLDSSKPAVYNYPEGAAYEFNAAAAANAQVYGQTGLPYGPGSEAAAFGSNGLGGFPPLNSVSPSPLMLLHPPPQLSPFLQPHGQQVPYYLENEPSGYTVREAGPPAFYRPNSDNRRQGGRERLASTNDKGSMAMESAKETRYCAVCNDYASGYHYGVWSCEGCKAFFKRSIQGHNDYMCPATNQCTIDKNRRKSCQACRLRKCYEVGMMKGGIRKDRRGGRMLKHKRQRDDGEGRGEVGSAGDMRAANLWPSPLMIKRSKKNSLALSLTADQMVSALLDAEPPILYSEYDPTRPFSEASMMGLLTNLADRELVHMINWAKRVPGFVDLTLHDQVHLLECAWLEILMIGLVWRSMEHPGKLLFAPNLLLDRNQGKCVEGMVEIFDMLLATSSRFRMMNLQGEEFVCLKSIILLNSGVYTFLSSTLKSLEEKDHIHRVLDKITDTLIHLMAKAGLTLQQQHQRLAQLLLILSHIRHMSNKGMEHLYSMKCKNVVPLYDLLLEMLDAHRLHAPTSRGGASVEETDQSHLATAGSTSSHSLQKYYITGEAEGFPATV

## CC/C(=C(\c1ccccc1)c1ccc(OCCN2CC2)cc1)c1ccccc1 (single isomer, unassigned) [tamoxifen azizidine cis isomer, tamoxifen azizidine]
  fold less affinity than the trans isomer: 50 fold
